The subject of this data set is CCRIS mutagenicity, Ames/micronucleus/aberration tests. Put plainly: CCRIS mutagenicity studies.
Setting [1] is: Test System: AMES SALMONELLA TYPHIMURIUM, Strain/Indicator: TA98, Metabolic Activation: NONE, Method: STANDARD PLATE.
[2] abbreviates: Test System: AMES SALMONELLA TYPHIMURIUM, Strain/Indicator: TA98, Metabolic Activation: RAT, LIVER, S-9, AROCLOR 1254, Method: STANDARD PLATE.
The mark [3] stands for this setting: Test System: AMES SALMONELLA TYPHIMURIUM, Strain/Indicator: TA100, Metabolic Activation: NONE, Method: STANDARD PLATE.
Where [4] appears, read: Test System: AMES SALMONELLA TYPHIMURIUM, Strain/Indicator: TA100, Metabolic Activation: RAT, LIVER, S-9, AROCLOR 1254, Method: STANDARD PLATE.
Where [5] appears, read: Test System: AMES SALMONELLA TYPHIMURIUM, Strain/Indicator: TA1535, Metabolic Activation: NONE, Method: STANDARD PLATE.
Setting [6] is: Test System: AMES SALMONELLA TYPHIMURIUM, Strain/Indicator: TA1535, Metabolic Activation: RAT, LIVER, S-9, AROCLOR 1254, Method: STANDARD PLATE.
[7] abbreviates: Test System: AMES SALMONELLA TYPHIMURIUM, Strain/Indicator: TA1537, Metabolic Activation: NONE, Method: STANDARD PLATE.
Where [8] appears, read: Test System: AMES SALMONELLA TYPHIMURIUM, Strain/Indicator: TA1537, Metabolic Activation: RAT, LIVER, S-9, AROCLOR 1254, Method: STANDARD PLATE.
The mark [9] stands for this setting: Test System: AMES SALMONELLA TYPHIMURIUM, Strain/Indicator: TA98, Metabolic Activation: NONE, Method: PREINCUBATION
The mark [10] stands for this setting: Test System: AMES SALMONELLA TYPHIMURIUM, Strain/Indicator: TA100, Metabolic Activation: NONE, Method: PREINCUBATION
The mark [11] stands for this setting: Test System: AMES SALMONELLA TYPHIMURIUM, Strain/Indicator: TA102, Metabolic Activation: NONE, Method: PREINCUBATION

Calls of active or inactive are those of the source. The rule behind the calls is not given here.

`CCCCCON=O`: the mutagenic call reads like this: (Test System: AMES SALMONELLA TYPHIMURIUM, Strain/Indicator: TA98, Metabolic Activation: HAMSTER, LIVER, S-9, AROCLOR 1254, Method: STANDARD PLATE) “inactive; negative”; under setting [1], “inactive; negative”; under setting [2], “inactive; negative”; (Test System: AMES SALMONELLA TYPHIMURIUM, Strain/Indicator: TA100, Metabolic Activation: HAMSTER, LIVER, S-9, AROCLOR 1254, Method: STANDARD PLATE) “active; positive”; under setting [3], “active; positive”; under setting [4], “inactive; negative”. The mutagenic call (Test System: AMES SALMONELLA TYPHIMURIUM, Strain/Indicator: TA1535, Metabolic Activation: HAMSTER, LIVER, S-9, AROCLOR 1254, Method: STANDARD PLATE) is “active; positive”; the mutagenic call under setting [5] was “active; positive”; the mutagenic call under setting [6] is “active; positive”; the mutagenic call (Test System: AMES SALMONELLA TYPHIMURIUM, Strain/Indicator: TA1537, Metabolic Activation: HAMSTER, LIVER, S-9, AROCLOR 1254, Method: STANDARD PLATE) was “inactive; negative”; the mutagenic call under setting [7] was “inactive; negative”; the mutagenic call under setting [8] was “inactive; negative”. Further, the mutagenic call is, setting by setting: (Test System: MOUSE LYMPHOMA, Strain/Indicator: L5178Y (TK+/TK-), Metabolic Activation: NONE, Method: SUSPENSION/PLATE) “inactive; negative. reevaluation of results: inconclusive/negative”; (Test System: MOUSE LYMPHOMA, Strain/Indicator: L5178Y (TK+/TK-), Metabolic Activation: RAT, LIVER, S-9, AROCLOR 1254, Method: SUSPENSION/PLATE) “inactive; negative. reevaluation of results: negative”.

As to `Cc1cnc(C)cn1`, the mutagenic call reads like this: under setting [9], “inactive; negative”; (Test System: AMES SALMONELLA TYPHIMURIUM, Strain/Indicator: TA98, Metabolic Activation: RAT, LIVER, S-9, AROCLOR 1254, Method: PREINCUBATION) “inactive; negative”; under setting [10], “inactive; negative”; (Test System: AMES SALMONELLA TYPHIMURIUM, Strain/Indicator: TA100, Metabolic Activation: RAT, LIVER, S-9, AROCLOR 1254, Method: PREINCUBATION) “inactive; negative”; under setting [11], “inactive; negative”; (Test System: AMES SALMONELLA TYPHIMURIUM, Strain/Indicator: TA102, Metabolic Activation: RAT, LIVER, S-9, AROCLOR 1254, Method: PREINCUBATION) “inactive; negative”.

For the molecule `Cc1cccc2cc3ccc4cccc5ccc(c12)c3c45`, the mutagenic call is, setting by setting: (Test System: AMES SALMONELLA TYPHIMURIUM, Strain/Indicator: TA100, Metabolic Activation: RAT, INTACT HEPATOCYTES, AROCLOR 1254, Method: PREINCUBATION) “inactive; negative”; (Test System: AMES SALMONELLA TYPHIMURIUM, Strain/Indicator: TA100, Metabolic Activation: RAT, NADPH-FORTIFIED HOMOGENIZED HEPATOCYTES, AROCLOR 1254, Method: PREINCUBATION) “active; positive”.

Consider `Cc1ccc2c(C)c3ccccc3c(C)c2c1`, for which the mutagenic call under setting [1] was “active; positive”, the mutagenic call under setting [2] is “active; positive”, the mutagenic call under setting [3] was “inactive; negative” and the mutagenic call under setting [4] is “active; positive”.

As to `CCC(C(C)O)[N+](=O)[O-]` (stereo not given), the mutagenic call under setting [9] is “inactive; negative”; the mutagenic call (Test System: AMES SALMONELLA TYPHIMURIUM, Strain/Indicator: TA98, Metabolic Activation: RAT, LIVER, S-9, AROCLOR, Method: PREINCUBATION) is “inactive; negative”; the mutagenic call under setting [10] was “inactive; negative”; the mutagenic call (Test System: AMES SALMONELLA TYPHIMURIUM, Strain/Indicator: TA100, Metabolic Activation: RAT, LIVER, S-9, AROCLOR, Method: PREINCUBATION) was “inactive; negative”; the mutagenic call under setting [11] was “inactive; negative”; the mutagenic call (Test System: AMES SALMONELLA TYPHIMURIUM, Strain/Indicator: TA102, Metabolic Activation: RAT, LIVER, S-9, AROCLOR, Method: PREINCUBATION) was “inactive; negative”.

For `O=[N+]([O-])c1ccc2c(c1)-c1cccc3cccc-2c13`, the mutagenic call under setting [1] was “active; positive”.

For `O=C1CN=C(c2ccccc2)c2cc([N+](=O)[O-])ccc2N1`, the mutagenic call under setting [1] was “inactive; negative”; the mutagenic call under setting [2] was “inactive; negative”; the mutagenic call under setting [3] was “inactive; negative”; the mutagenic call under setting [4] was “inactive; negative”; the mutagenic call (Test System: AMES SALMONELLA TYPHIMURIUM, Strain/Indicator: TA102, Metabolic Activation: NONE, Method: STANDARD PLATE) was “inactive; negative”; the mutagenic call (Test System: AMES SALMONELLA TYPHIMURIUM, Strain/Indicator: TA102, Metabolic Activation: RAT, LIVER, S-9, AROCLOR 1254, Method: STANDARD PLATE) is “inactive; negative”. Also, the mutagenic call runs as follows: under setting [5], “inactive; negative”; under setting [6], “inactive; negative”; under setting [7], “inactive; negative”; under setting [8], “inactive; negative”; (Test System: E. COLI, Strain/Indicator: WP2 UVRA, Metabolic Activation: NONE, Method: STANDARD PLATE) “inactive; negative”; (Test System: E. COLI, Strain/Indicator: WP2 UVRA, Metabolic Activation: RAT, LIVER, S-9, AROCLOR 1254, Method: STANDARD PLATE) “inactive; negative”.

The values are drawn from PubChem BioAssay AID1259407 (Chemical Carcinogenesis Research Information System (CCRIS), 2018).
